Assay results as given in ChEMBL document CHEMBL1201862, “PubChem BioAssay data set” (2004).
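Assay format: 96-well plates, 48-hour exposure. GI50 marks 50% less growth.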 Active and inactive are the calls of the source. Rule as the data show it: active = GI50 up to about 1.1 µM and inactive = higher.

Tests used:
Test in all cases: NCI-60 cell line screen, 48 h
U-251 = system: U-251
SR = system: SR
NCI-H460 = system: NCI-H460
ACHN = system: ACHN
SN12C = system: SN12C
A549 = system: A549
SW-620 = system: SW-620
NCI-H226 = system: NCI-H226
Malme-3M = system: Malme-3M
KM12 = system: KM12
SK-MEL-2 = system: SK-MEL-2
NCI-H522 = system: NCI-H522
SK-OV-3 = system: SK-OV-3
UACC-257 = system: UACC-257
OVCAR-3 = system: OVCAR-3
PC-3 = system: PC-3
MCF7 = system: MCF7
MOLT-4 = system: MOLT-4
OVCAR-8 = system: OVCAR-8
EKVX = system: EKVX
SK-MEL-28 = system: SK-MEL-28
786-0 = system: 786-0
SF-268 = system: SF-268
NCI/ADR-RES = system: NCI/ADR-RES
RPMI-8226 = system: RPMI-8226
SF-295 = system: SF-295
HCC 2998 = system: HCC 2998
HT-29 = system: HT-29
HCT-116 = system: HCT-116
HOP-62 = system: HOP-62
MDA-MB-435 = system: MDA-MB-435
SNB-75 = system: SNB-75
SF-539 = system: SF-539
K562 = system: K562
MDA-N = system: MDA-N
HL-60 = system: HL-60
MDA-MB-231 = system: MDA-MB-231
BT-549 = system: BT-549
TK-10 = system: TK-10
LOX IMVI = system: LOX IMVI
SNB-19 = system: SNB-19
Hs-578T = system: Hs-578T
M14 = system: M14
A498 = system: A498
OVCAR-5 = system: OVCAR-5
OVCAR-4 = system: OVCAR-4
IGROV-1 = system: IGROV-1
HCT-15 = system: HCT-15
UO-31 = system: UO-31
DU-145 = system: DU-145
UACC-62 = system: UACC-62
SK-MEL-5 = system: SK-MEL-5
CCRF-CEM = system: CCRF-CEM
COLO 205 = system: COLO 205
NCI-H23 = system: NCI-H23
HOP-92 = system: HOP-92
CAKI-1 = system: CAKI-1

For `Clc1cc(Br)c2c3c(c(Br)cc(Cl)c13)C(Br)=C2Br`, the GI50 (U-251) was 43.8 µM (inactive), the GI50 (SR) was 27.9 µM (inactive) and the GI50 (NCI-H460) was 40.7 µM (inactive). The GI50 (ACHN) was 19.7 µM (inactive), the GI50 (SN12C) was 19.5 µM (inactive) and the GI50 (A549) was 55.8 µM (inactive). For the same molecule, the GI50 (SW-620) was 34.2 µM (inactive), the GI50 (NCI-H226) was 39.4 µM (inactive) and the GI50 (Malme-3M) was 27.6 µM (inactive). The GI50 (KM12) was 45.8 µM (inactive), the GI50 (SK-MEL-2) was 29.9 µM (inactive) and the GI50 (NCI-H522) was 17.2 µM (inactive). For the same molecule, the GI50 (SK-OV-3) was > 100 µM (inactive), the GI50 (UACC-257) was > 100 µM (inactive) and the GI50 (OVCAR-3) was 30.3 µM (inactive). The GI50 (PC-3) was 26.7 µM (inactive), the GI50 (MCF7) was 34.8 µM (inactive) and the GI50 (MOLT-4) was 19.8 µM (inactive). For the same molecule, the GI50 (OVCAR-8) was 31 µM (inactive), the GI50 (EKVX) was 28.6 µM (inactive) and the GI50 (SK-MEL-28) was > 100 µM (inactive). The GI50 (786-0) was 22.1 µM (inactive), the GI50 (SF-268) was 22.5 µM (inactive) and the GI50 (NCI/ADR-RES) was 22.8 µM (inactive). For the same molecule, the GI50 (RPMI-8226) was 21.6 µM (inactive), the GI50 (SF-295) was > 100 µM (inactive) and the GI50 (HCC 2998) was 18.3 µM (inactive). For the same molecule, the GI50 (HT-29) was 25.2 µM (inactive), the GI50 (HCT-116) was 21.2 µM (inactive) and the GI50 (HOP-62) was 64.3 µM (inactive). The GI50 (MDA-MB-435) was 39.4 µM (inactive), the GI50 (SNB-75) was 13.8 µM (inactive) and the GI50 (SF-539) was 19 µM (inactive). The GI50 (K562) was 29 µM (inactive), the GI50 (MDA-N) was 42.3 µM (inactive) and the GI50 (HL-60) was 19.1 µM (inactive). For the same molecule, the GI50 (MDA-MB-231) was 28.1 µM (inactive), the GI50 (BT-549) was 38.7 µM (inactive) and the GI50 (TK-10) was 21.8 µM (inactive). The GI50 (LOX IMVI) was 16.9 µM (inactive), the GI50 (SNB-19) was > 100 µM (inactive) and the GI50 (Hs-578T) was 33.1 µM (inactive). The GI50 (M14) was 28.2 µM (inactive), the GI50 (A498) was > 100 µM (inactive) and the GI50 (OVCAR-5) was 44.2 µM (inactive). The GI50 (OVCAR-4) was 44.9 µM (inactive), the GI50 (IGROV-1) was 16.7 µM (inactive) and the GI50 (HCT-15) was 18.6 µM. The GI50 (UO-31) was 44.6 µM (inactive), the GI50 (DU-145) was 28.4 µM (inactive) and the GI50 (UACC-62) was 23.2 µM (inactive).

`CN(CC(=O)N1CC(CCl)c2ccc([N+](=O)[O-])cc21)CC(=O)N1CC(CCl)c2ccc([N+](=O)[O-])cc21` (stereo unspecified) was tested, and the GI50 (U-251) was > 100 µM (inactive), the GI50 (SK-MEL-5) was 98.9 µM (inactive) and the GI50 (NCI-H460) was > 100 µM (inactive). The GI50 (CCRF-CEM) was > 100 µM (inactive), the GI50 (ACHN) was > 100 µM (inactive) and the GI50 (COLO 205) was > 100 µM (inactive). For the same molecule, the GI50 (SN12C) was > 100 µM (inactive), the GI50 (A549) was > 100 µM (inactive) and the GI50 (SW-620) was > 100 µM (inactive). For the same molecule, the GI50 (NCI-H226) was > 100 µM (inactive), the GI50 (Malme-3M) was > 100 µM (inactive) and the GI50 (KM12) was > 100 µM (inactive). For the same molecule, the GI50 (SK-MEL-2) was 97.9 µM (inactive), the GI50 (NCI-H522) was 7.73 µM (inactive) and the GI50 (NCI-H23) was > 100 µM (inactive). The GI50 (SK-OV-3) was > 100 µM (inactive), the GI50 (UACC-257) was > 100 µM (inactive) and the GI50 (OVCAR-3) was 74.1 µM (inactive). The GI50 (PC-3) was > 100 µM (inactive), the GI50 (MCF7) was > 100 µM (inactive) and the GI50 (MOLT-4) was > 100 µM (inactive). The GI50 (HOP-92) was > 100 µM (inactive), the GI50 (OVCAR-8) was > 100 µM (inactive) and the GI50 (EKVX) was > 100 µM (inactive). For the same molecule, the GI50 (SK-MEL-28) was > 100 µM (inactive), the GI50 (786-0) was > 100 µM (inactive) and the GI50 (SF-268) was > 100 µM (inactive). The GI50 (NCI/ADR-RES) was > 100 µM (inactive), the GI50 (RPMI-8226) was 95.9 µM (inactive) and the GI50 (SF-295) was > 100 µM (inactive). The GI50 (HCC 2998) was > 100 µM (inactive), the GI50 (HT-29) was > 100 µM (inactive) and the GI50 (HCT-116) was > 100 µM (inactive). The GI50 (HOP-62) was > 100 µM (inactive), the GI50 (MDA-MB-435) was 83.9 µM (inactive) and the GI50 (SNB-75) was > 100 µM (inactive). The GI50 (SF-539) was > 100 µM (inactive), the GI50 (K562) was > 100 µM (inactive) and the GI50 (MDA-N) was > 100 µM (inactive). The GI50 (HL-60) was > 100 µM (inactive), the GI50 (MDA-MB-231) was > 100 µM (inactive) and the GI50 (CAKI-1) was > 100 µM (inactive). For the same molecule, the GI50 (BT-549) was > 100 µM (inactive), the GI50 (TK-10) was > 100 µM (inactive) and the GI50 (LOX IMVI) was > 100 µM (inactive). The GI50 (SNB-19) was > 100 µM (inactive), the GI50 (Hs-578T) was > 100 µM (inactive) and the GI50 (M14) was > 100 µM (inactive). The GI50 (A498) was > 100 µM (inactive), the GI50 (OVCAR-5) was > 100 µM (inactive) and the GI50 (IGROV-1) was 34.9 µM (inactive). For the same molecule, the GI50 (HCT-15) was > 100 µM, the GI50 (UO-31) was > 100 µM (inactive) and the GI50 (DU-145) was > 100 µM (inactive). The GI50 (UACC-62) was > 100 µM (inactive).
